Structures are written as SMILES. Bounds are passed on as bounds.

The test system of one assay is Rattus norvegicus. The experiment in a line: Anxiolytic activity in thirsty naive rat assessed as shock episodes at 10 mg/kg, po by Vogel assay relative to control. It counts as functional.
With `Cc1ccc2ccc(-c3cc(F)cc(C#N)c3)cc2n1`, the Activity is on record as 100%. Same read-out and setting: next, `Cc1cccc(C#Cc2ccccc2)n1`: 80%.

In the next assay the target is T1, Metabotropic glutamate receptor 5 (Rattus norvegicus, UniProt P31424). The experiment in a line: Displacement of [3H]MPEP from mGlu5 receptor in rat brain. It counts as tissue-based. On the technique in general: In a radioligand displacement assay an active substance lowers the binding of a labelled ligand.
T1 sequence (P31424 whole entry): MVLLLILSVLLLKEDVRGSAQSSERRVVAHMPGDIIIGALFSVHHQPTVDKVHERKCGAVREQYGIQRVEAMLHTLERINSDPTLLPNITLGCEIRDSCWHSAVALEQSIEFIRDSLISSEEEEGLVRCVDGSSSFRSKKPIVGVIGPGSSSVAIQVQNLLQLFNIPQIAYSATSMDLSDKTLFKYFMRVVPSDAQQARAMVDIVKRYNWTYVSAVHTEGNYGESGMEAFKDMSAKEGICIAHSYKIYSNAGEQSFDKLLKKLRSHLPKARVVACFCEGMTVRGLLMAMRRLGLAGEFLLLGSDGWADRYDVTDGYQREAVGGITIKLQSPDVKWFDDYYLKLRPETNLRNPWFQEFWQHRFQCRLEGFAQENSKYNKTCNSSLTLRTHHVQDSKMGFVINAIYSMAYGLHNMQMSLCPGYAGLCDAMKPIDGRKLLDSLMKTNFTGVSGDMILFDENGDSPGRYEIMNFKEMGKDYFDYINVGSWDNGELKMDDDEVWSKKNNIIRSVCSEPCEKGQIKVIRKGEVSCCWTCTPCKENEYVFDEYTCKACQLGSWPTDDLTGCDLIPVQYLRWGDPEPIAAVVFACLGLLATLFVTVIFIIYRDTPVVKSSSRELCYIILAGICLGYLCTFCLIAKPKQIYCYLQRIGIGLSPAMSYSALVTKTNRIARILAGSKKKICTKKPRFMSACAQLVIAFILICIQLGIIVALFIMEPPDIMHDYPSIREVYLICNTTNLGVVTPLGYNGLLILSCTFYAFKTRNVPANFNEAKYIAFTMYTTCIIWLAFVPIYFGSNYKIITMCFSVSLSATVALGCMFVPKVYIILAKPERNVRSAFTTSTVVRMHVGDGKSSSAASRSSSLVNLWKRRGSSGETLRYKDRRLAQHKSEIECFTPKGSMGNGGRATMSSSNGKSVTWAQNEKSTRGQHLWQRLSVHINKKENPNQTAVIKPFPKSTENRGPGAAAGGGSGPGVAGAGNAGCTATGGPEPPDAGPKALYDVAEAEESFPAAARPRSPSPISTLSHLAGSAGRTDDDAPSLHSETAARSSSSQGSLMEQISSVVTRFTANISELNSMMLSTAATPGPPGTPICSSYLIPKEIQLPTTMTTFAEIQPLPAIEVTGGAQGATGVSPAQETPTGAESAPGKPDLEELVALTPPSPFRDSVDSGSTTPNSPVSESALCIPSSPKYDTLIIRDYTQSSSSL
The term Ki denotes a measure of affinity in units of concentration, obtained from inhibition or displacement. On to `Cc1ccc2ccc(-c3cc(F)cc(C#N)c3)cc2n1`, for which affinity was put at a Ki of 22 nM.

The compound `Cc1ccc2ccc(-c3cccc(C#N)c3)cc2n1` registered a Ki of 72 nM.

The next assay deals with T1, Metabotropic glutamate receptor 5. Briefly: Activity at rat mGlu5 receptor expressed in CHO cells assessed as inhibition of quisqualate-stimulated calcium mobilization by FLIPR assay. Type of assay: functional, cell-based. In general terms: A change in cytosolic calcium serves as a functional read-out for many receptors and channels.
As usually defined, the IC50 is the concentration that gives 50% inhibition. On to `Cc1ccc2ccc(-c3cc(C#N)cc(OCC(C)C)c3)cc2n1`, for which the IC50 came to 12000 nM. As for `Cc1cccc(-c2ccc3ccc(C)nc3c2)c1`, the IC50 came out at 3400 nM. Regarding `Cc1ccc2ccc(-c3cncc(C#N)c3)cc2n1`, the IC50 was 23 nM. On the same count and under the same terms, the same measure for `CCOc1cc(C#N)cc(-c2ccc3ccc(C)nc3c2)c1`: 17 nM; for `Cc1ccc2ccc(-c3cc(C#N)cc(OC(F)(F)F)c3)cc2n1`: 75 nM; for `Cc1ccc2ccc(-c3cccc(CC#N)c3)cc2n1`: 430 nM. Turning to `Cc1ccc2ccc(-c3cc(Br)cc(C#N)c3)cc2n1`, the IC50 worked out at 13 nM. As for `Cc1ccc2ccc(-c3cc(C#N)cc(OC(C)C)c3)cc2n1`, the IC50 turned out to be 310 nM. The same measure, in the same setting: the same measure for `Cc1ccc2ccc(-c3ccccc3)cc2n1`: 9000 nM; for `Cc1ccc2ccc(-c3cccc(O)c3)cc2n1`: 19000 nM; for `COCCOc1cc(C#N)cc(-c2ccc3ccc(C)nc3c2)c1`: 82 nM. Regarding `Cc1ccc2ccc(-c3cc(F)cc(C#N)c3)cc2n1`, the half-maximal inhibitory concentration (IC50) turned out to be 0.8 nM. Turning to `Cc1ccc2ccc(-c3ccc(C#N)cc3)cc2n1`, the IC50 is greater than 10000 nM. Same read-out and setting: the same measure for `CCS(=O)(=O)c1cc(C#N)cc(-c2ccc3ccc(C)nc3c2)c1`: 1090 nM; for `Cc1ccc2ccc(-c3ccccc3C#N)cc2n1`: 9800 nM; for `Cc1ccc2ccc(-c3cccc(F)c3)cc2n1`: 1800 nM. On the same count and under the same terms, the same measure for `Cc1ccc2ccc(-c3cccc(Cl)c3)cc2n1`: 14000 nM; for `COCc1cc(C#N)cc(-c2ccc3ccc(C)nc3c2)c1`: 2 nM; for `Cc1ccc2ccc(-c3cccc(C(N)=O)c3)cc2n1`: greater than 10000 nM. For the compound `COc1ccccc1-c1ccc2ccc(C)nc2c1`, the IC50 was 4200 nM. On the same count and under the same terms, the same measure for `COc1cc(C#N)cc(-c2ccc3ccc(C)nc3c2)c1`: 2.4 nM. For `Cc1ccc2ccc(-c3cc(O)cc(C#N)c3)cc2n1`, the IC50 was found to be 360 nM.

`CC(=O)c1cccc(-c2ccc3ccc(C)nc3c2)c1`: the IC50 was determined as 4760 nM. Turning to `Cc1ccc2ccc(-c3cccc(CO)c3)cc2n1`, the IC50 was determined as 8700 nM. For the compound `Cc1ccc2ccc(-c3cccc(OC(F)(F)F)c3)cc2n1`, the IC50 was greater than 10000 nM. For `Cc1ccc2ccc(-c3cccc(C(F)(F)F)c3)cc2n1`, the IC50 was greater than 10000 nM.

For `Cc1ccc2ccc(-c3cccnc3)cc2n1`, the IC50 worked out at 510 nM.

For the compound `CCSc1cc(C#N)cc(-c2ccc3ccc(C)nc3c2)c1`, the IC50 was determined as 72 nM. In the case of `Cc1ccc2ccc(-c3cccc(C#N)c3)cc2n1`, the IC50 came out at 7.7 nM. Turning to `Cc1ccc2ccc(-c3cc(C#N)cc(C#N)c3)cc2n1`, the IC50 is 2 nM. The same measure, in the same setting: the same measure for `COc1ccc(-c2ccc3ccc(C)nc3c2)cc1`: 16000 nM; for `COc1cccc(-c2ccc3ccc(C)nc3c2)c1`: 860 nM. Regarding `Cc1cc(C#N)cc(-c2ccc3ccc(C)nc3c2)c1`, the IC50 was found to be 1.6 nM.

With `COCc1cccc(-c2ccc3ccc(C)nc3c2)c1`, the half-inhibitory concentration (IC50) was 5800 nM.

With `Cc1ccc2ccc(-c3cc(Cl)cc(C#N)c3)cc2n1`, the IC50 is 1.4 nM.

Source of the values: ChEMBL document CHEMBL1149577, “Rational design of 7-arylquinolines as non-competitive metabotropic glutamate receptor subtype 5 antagonists” (Bioorg Med Chem Lett, 2007).
